Assay results: patent US20250195517A1, “TREATMENT OF INTRACRANIAL HEMORRHAGE” (ImmunoChem Therapeutics, LLC, priority 2022, published 2025)

Test system: animal models of acute brain injuries such as intracranial hemorrhage
Test: animal models of acute brain injuries such as intracranial hemorrhage
Assay type: in vivo
Source text: MW189 is a novel small molecule drug candidate developed as a selective suppressor of disease- and injury-induced proinflammatory cytokine overproduction associated with destructive neuroinflammation/synaptic dysfunction cycles. […] The investigators seek to establish if these targets are modified in humans with intracranial hemorrhage.

c1ccc(-c2cc(-c3ccncc3)c(N3CCN(c4ncccn4)CC3)nn2)cc1 [MW189]
cerebral edema: reduces cerebral edema | functional and cognitive performance: improves functional and cognitive performance | neuroinflammation: attenuates neuroinflammation
